This is an account of results in publication PMC8908504 (ACS Omega, 2022).

In data set [1] the test system is TAMH cells. In words: MTT cell viability assay, TAMH cells. To be noted: TAMH cells, MTT assay, 24 h exposure; for LD25: 25% reduction of viability; for LD50: 50% reduction of viability. An excerpt: (§1) In addition to the activity, basic toxicological properties of the newly synthesized compounds were also investigated by using the 3-(4,5-dimethylthiazol-2-yl)-2,5-diphenyltetrazolium bromide (MTT) cell viability assay on mouse TAMH and human HEP-G2 hepatic cell lines (see Table 2). Both cell lines are established for the evaluation of hepatotoxicity.[42],[43]
(§2) The culturing of the mouse liver TAMH and human liver cancer HEP-G2 cell lines and the MTT assay used to evaluate cell viability were carried out as previously described elsewhere in detail.[27],[29] […] The medium in the wells was then replaced with the medium containing the compounds. Control wells contained an equivalent number of cells and 1% (v/v) DMSO. Wells without cells were used to determine the background optical density (OD) and were treated as the control wells. After 24 or 48 h of incubation with the compound, the respective medium was replaced with a fresh medium supplemented with 10% (v/v) of a 2.5 mg/mL solution of MTT. The plates were incubated for 4 h. Then, the culture medium was carefully aspirated off and 50 μL of DMSO was added to each well to dissolve the formazan crystals. The ODs of each well were measured at λ = 570 nm with a SpectraMax 190 microplate reader.
(§3) The calculated T/Ccorr. values were plotted against the log(concentration). The LD50 and LD25 values were determined by using GraphPad Prism 6. […] The values are given as the mean with SD of at least three independent experiments.
In general terms: Formazan colour is commonly taken as a measure of viable cells.

The nature of data set [2]: Maximum concentration without precipitation in MTT assay buffer. It is filed as physicochemical.
From the text: A limitation in the in vitro toxicity testing was the occasional poor water solubility of the analogues.
Data set [3] in a line: log D7.4 estimation by HPLC-based method. It is filed as physicochemical. The method, then: The log D7.4 values were estimated using a common HPLC-based method in accordance with guideline OPPTS 830.7570 of the United States Environmental Protection Agency (EPA). The HPLC measurements were performed with a Phenomenex Luna 5 μm Phenyl-Hexyl 100 Å column (150 × 4.6 mm). […]. Uracil was used to measure the unretained peak time. To obtain a calibration function, the logarithm of the capacity factors for the reference substances was then plotted against the corresponding log P values taken from the mentioned guideline, which are equivalent to the log D7.4 values for non-ionizable compounds like the reference substances used for calibration. With this calibration function, it was possible to estimate the log D7.4 value from the corresponding retention time for each compound to be tested. For the measurement, 2 mg of the reference substances was each dissolved in 1 mL of methanol. A reference mixture was then obtained by combining 50 μL of each reference solution. The reference mixture was measured before and after the substances to be tested. The mean value from both measurements was used for the calibration line. The substances to be tested were injected as a solution in methanol (2 mg/mL), and the retention time was determined as the mean value from two measurements.

Data set [4] concerns the target T1, KV7.2/3 channel (Homo sapiens, UniProt O43525+O43526). Description: KV7.2/3 channel opening assay (thallium-sensitive fluorescence). The format is cell-based. Conditions: for potency relative to flupirtine: KV7.2/3 opening, EC50 compared with flupirtine; for KV7.2/3 channel opening activity (in words): inactive = no channel opening activity detected up to a concentration of 10 μM. The method, then:
To evaluate the biological activity, the synthesized analogues were tested on HEK293 cells overexpressing the KV7.2/3 channel. The measurement was carried out in a fluorescence-based assay in which a thallium-sensitive dye generated the fluorescence signal. Due to its similarity to potassium, thallium can also pass through KV7 channels. The intensity of the fluorescence signal correlates with the amount of intracellular thallium and thus with the ability of the compounds to open KV7 channels. To determine the potency, the fluorescence intensity was measured as a function of the compound concentration. The efficacy was determined relative to the maximum fluorescence signal induced by flupirtine. For a summary of the activity data, see Table 2.
The cell culture of the KV7.2/3 transfected HEK293 cells (HEK293 KCNQ2/3 cells from SB Drug Discovery, Glasgow, UK) used for the assay and the processing of the obtained data were performed as described in earlier work.[27],[29] Briefly, 60,000 cells/well were seeded into 96-well microtiter plates for fluorescence-based assays (4titude Vision Plate Black 96-Well microtiter plates from ThermoScientic) and incubated for 24 h. After incubation, the medium was changed to 200 μL/well loading buffer containing 5 mmol/L probenecid and incubated for 1 h at room temperature. Subsequently, the test compounds dissolved in DMSO were added to the wells to the desired concentrations and further incubated for 30 min. As a control, the loading buffer with a DMSO concentration corresponding to the substance samples (1% (V/V)) was used. Fluorescence measurements were performed on the Infinite F200 Pro plate reader (Tecan) set at […]/emission wavelengths of 485 and 535 nm, respectively. After measuring the background fluorescence (baseline) for 20 s, a stimulus buffer (25 mmol/L K^+, 15 mmol/L Tl^+) was added just before the fluorescence of each well was measured.
The calculations to obtain dose–response curves were performed in the same manner as in previous investigations.[27],[29] Briefly, the fluorescence intensity was normalized with the baseline signal (F/F0) at each time of signal acquisition. To obtain the corrected negative control, a value of 1 was subtracted from the normalized value of the negative control. Subsequently, the value of the corrected negative control was subtracted from the maximum (corr. F/F0) value of a compound in a defined concentration (corr. ΔF/F0) and then plotted against the logarithmic concentration. The EC50 value was calculated as relative values with GraphPad Prism 6 (La Jolla, CA, USA), that is, the inflection points of the sigmoidal curves. The Emax value, the maximum response, indicates the intrinsic activity of a compound. This value was determined relative to flupirtine (1), where the maximum corr. ΔF/F0 value of flupirtine (1) was defined as 100%. The EC50 and Emax value of a compound is the mean of at least three independent experiments ± standard deviation (SD).

Data set [5] relates to HEP-G2 cells. In words: MTT cell viability assay, HEP-G2 cells. To be noted: HEP-G2 cells, MTT assay, 24 h exposure; for LD25: 25% reduction of viability; for LD50: 50% reduction of viability.
From the text: as §1, §2, §3

Data set [6] deals with T1, KV7.2/3 channel. Conditions: cited from earlier work.
Details of data set [7]: method as in guideline OPPTS 830.7570 (EPA). To be noted: reference substances for calibration; log P values; ref guideline OPPTS 830.7570 (EPA); cited from earlier work.
For data set [8], the system named is HEP-G2 cells. To be noted: MTT assay, 24 h exposure; cited from earlier work.
Data set [9] deals with TAMH cells. To be noted: MTT assay, 24 h exposure; cited from earlier work.
[10] abbreviates: HPLC, Phenomenex Luna 5 μm Phenyl-Hexyl column, pH 7.4, HPLC, calibration A1, read-out: logD7.4.
Setting [11] is: HPLC, Phenomenex Luna 5 μm Phenyl-Hexyl column, pH 7.4, HPLC, calibration B1, read-out: logD7.4.
Where [12] appears, read: HPLC, Phenomenex Luna 5 μm Phenyl-Hexyl column, pH 7.4, HPLC, mean of two calibrations, read-out: logD7.4 (mean).
Setting [13] is: HPLC, Phenomenex Luna 5 μm Phenyl-Hexyl column, pH 7.4, estimated by HPLC-based method, pH 7.4, read-out: log D7.4.
[14] abbreviates: HEK293 cells overexpressing KV7.2/3, footnote e.

Entries after “also recorded” stand apart in the source; their conditions may differ. Where two headings read alike, the source gives them in different places. Marks after values point to notes of the source that are not given here. Some results are limits rather than exact numbers.

T1 sequence (O43526 whole entry): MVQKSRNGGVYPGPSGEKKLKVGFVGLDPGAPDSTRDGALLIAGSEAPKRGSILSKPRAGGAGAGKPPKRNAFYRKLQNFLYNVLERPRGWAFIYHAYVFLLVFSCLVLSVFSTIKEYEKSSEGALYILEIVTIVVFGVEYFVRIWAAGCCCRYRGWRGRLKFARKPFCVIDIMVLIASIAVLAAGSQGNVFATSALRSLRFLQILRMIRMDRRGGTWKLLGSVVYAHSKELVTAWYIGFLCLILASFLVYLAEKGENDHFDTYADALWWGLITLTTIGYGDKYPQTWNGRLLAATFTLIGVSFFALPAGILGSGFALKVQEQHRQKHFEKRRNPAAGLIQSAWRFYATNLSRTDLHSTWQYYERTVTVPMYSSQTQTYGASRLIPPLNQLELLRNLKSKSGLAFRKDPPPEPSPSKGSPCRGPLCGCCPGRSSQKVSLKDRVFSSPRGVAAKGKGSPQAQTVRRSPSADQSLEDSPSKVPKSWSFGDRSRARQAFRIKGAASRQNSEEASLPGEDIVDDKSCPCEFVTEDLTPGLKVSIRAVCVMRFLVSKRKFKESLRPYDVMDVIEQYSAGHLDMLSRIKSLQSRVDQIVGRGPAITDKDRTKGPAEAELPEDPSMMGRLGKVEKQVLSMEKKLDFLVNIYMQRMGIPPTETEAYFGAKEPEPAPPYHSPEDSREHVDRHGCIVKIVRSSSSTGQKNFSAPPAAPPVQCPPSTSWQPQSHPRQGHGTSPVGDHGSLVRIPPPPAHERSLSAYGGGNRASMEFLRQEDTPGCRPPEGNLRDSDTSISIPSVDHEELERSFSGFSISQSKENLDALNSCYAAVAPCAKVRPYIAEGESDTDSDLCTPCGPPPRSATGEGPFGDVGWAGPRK
T1 sequence (O43525 whole entry): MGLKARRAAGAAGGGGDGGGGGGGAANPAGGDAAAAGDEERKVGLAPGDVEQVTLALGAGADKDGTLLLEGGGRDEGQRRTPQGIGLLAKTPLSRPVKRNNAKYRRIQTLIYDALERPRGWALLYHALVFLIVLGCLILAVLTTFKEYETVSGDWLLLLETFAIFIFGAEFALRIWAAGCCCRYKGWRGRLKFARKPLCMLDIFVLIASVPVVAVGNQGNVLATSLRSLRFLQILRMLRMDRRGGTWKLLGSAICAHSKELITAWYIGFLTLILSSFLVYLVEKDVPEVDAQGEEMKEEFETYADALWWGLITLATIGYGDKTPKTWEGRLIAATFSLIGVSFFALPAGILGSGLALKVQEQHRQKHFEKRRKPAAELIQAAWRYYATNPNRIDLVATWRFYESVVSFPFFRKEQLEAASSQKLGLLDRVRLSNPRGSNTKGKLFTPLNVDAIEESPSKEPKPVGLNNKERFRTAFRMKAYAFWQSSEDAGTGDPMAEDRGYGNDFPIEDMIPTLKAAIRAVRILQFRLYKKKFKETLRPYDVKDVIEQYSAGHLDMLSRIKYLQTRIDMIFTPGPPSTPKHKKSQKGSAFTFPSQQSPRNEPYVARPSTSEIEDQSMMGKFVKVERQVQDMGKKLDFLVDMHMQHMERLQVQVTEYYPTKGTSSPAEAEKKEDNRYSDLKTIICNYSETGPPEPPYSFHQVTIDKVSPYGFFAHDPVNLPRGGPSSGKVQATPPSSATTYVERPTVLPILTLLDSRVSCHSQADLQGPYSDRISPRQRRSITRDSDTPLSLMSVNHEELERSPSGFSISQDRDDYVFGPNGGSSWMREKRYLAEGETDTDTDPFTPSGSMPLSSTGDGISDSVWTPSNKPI

With `COc1nc(NCc2ccc(F)cc2)cc(C)c1C(=O)NCc1ccc(F)cc1` [36b, N-(4-Fluorobenzyl)-6-[(4-fluorobenzyl)amino]-2-methoxy-4-methylnicotinamide], the LD25 is more than 63 µM in the data set with TAMH cells [1] and more than 16 µM in the data set on HEP-G2 cells [5]. Also, the LD50 is more than 63 µM in the data set with TAMH cells [1] and more than 16 µM in the data set with HEP-G2 cells [5]. In addition, the “maximum concentration achieved without precipitating” value in data set [2] came out at 63 µM. In addition, the chromatographic logD was 4.13 in data set [3] (setting [10]), 4.09 in [3] (setting [11]), 4.1 in data set [3] (setting [12]) and 4.1 in [3] (setting [13]). The molecule also returned an EC50 at KV7.2/3 channel [4] (HEK293 cells overexpressing KV7.2/3, concentration for half-maximal channel opening, mean ± SD, ≥3 determinations) of 310 nM. The same molecule showed an efficacy on KV7.2/3 channel [4] (HEK293 cells overexpressing KV7.2/3, relative to maximum signal of flupirtine (=100%)) of 105 ± 12%. Moreover, the “potency relative to flupirtine” value at KV7.2/3 channel [4] is “about six times more potent than flupirtine; also recorded: six times as potent as flupirtine”; on KV7.2/3 channel [4] (listed as N-(4-fluorobenzyl)-6-[(4-fluorobenzyl)amino]-2-methoxy-4-methylnicotinamide) it was “six times as active as flupirtine”.
In the case of `Cc1cc(NCc2ccc(F)cc2)[nH]c(=O)c1C(=O)NCc1ccc(F)cc1` [compound 37, N-(4-Fluorobenzyl)-6-[(4-fluorobenzyl)amino]-4-methyl-2-oxo-1,2-dihydropyridine-3-carboxamide], the melting point is 196 °C.
Regarding `O=C(Cc1cc(F)cc(F)c1)Nc1ccc(N2CCOCC2)nc1N1CCOCC1` [compound 49], the EC50 at KV7.2/3 channel [6] (KV7.2/3, lead structure from previous work, read-out: EC50) is 11 nM.
For `c1ccc(N(c2ccccc2)c2ccccc2)cc1` [Triphenylamine], in [7], the “logD (Lit.)” value is recorded as 5.7.
On to `Cc1cc(N2CCOCC2)nc(N2CCOCC2)c1CNC(=O)Cc1cc(F)cc(F)c1` [55b, 2-(3,5-Difluorophenyl)-N-[(4-methyl-2,6-dimorpholinopyridin-3-yl)methyl]acetamide], for which the figures for the LD25 in the data set with TAMH cells [1] and in the data set with HEP-G2 cells [5] were 24 ± 5 µM and 20 ± 7 µM, respectively. Further, the LD50 in the data set with TAMH cells [1] and in the data set with HEP-G2 cells [5] was more than 250 µM throughout. Moreover, the chromatographic logD is 3.52 in data set [3] (setting [10]), 3.53 in [3] (setting [11]), 3.5 in [3] (setting [12]) and 3.5 in data set [3] (setting [13]). Moreover, the EC50 on KV7.2/3 channel [4] (setting [14]) was more than 10000 nM. Further, the “KV7.2/3 channel opening activity (in words)” value on KV7.2/3 channel [4] was “inactive”.
For `CCOC(=O)Nc1ccc(NCc2ccc(F)cc2)cc1N` [compound 2, retigabine], the EC50 on KV7.2/3 channel [6] (HEK293 cells overexpressing KV7.2/3, mean ± SD) was 147 ± 12 nM. For the same molecule, at KV7.2/3 channel [6] (HEK293 cells overexpressing KV7.2/3, relative to flupirtine), the efficacy is 134 ± 16 ^f %. In addition, the LD25 with HEP-G2 cells [8] is listed as 269 ± 166 ^f μM. Moreover, the LD50 in the data set on HEP-G2 cells [8] and in the data set on TAMH cells [9] was >400 ^f μM throughout. In addition, the chromatographic logD in [3] (pH 7.4, HPLC, calibration C, read-out: logD7.4) is 2.05; in data set [3] (pH 7.4, HPLC, calibration D, read-out: logD7.4) it was 2.06; in data set [3] (pH 7.4, HPLC, mean of two calibrations, read-out: logD7.4 (mean)), 2.1; in [3] (pH 7.4, estimated by HPLC-based method, pH 7.4, read-out: log D7.4), 2.1.
In the case of `Cc1cc(N2CCOCC2)nc(N2CCOCC2)c1CNC(=O)c1ccc(F)cc1` [55a, 4-Fluoro-N-[(4-methyl-2,6-dimorpholinopyridin-3-yl)methyl]benzamide], the LD25 in the data set with TAMH cells [1] was found to be 22 ± 7 µM; in the data set on HEP-G2 cells [5] it was 22 ± 6 µM. Moreover, the LD50 in the data set on TAMH cells [1] and in the data set on HEP-G2 cells [5] was more than 31 µM in each case. For the same molecule, the chromatographic logD was 3.45 in data set [3] (setting [10]), 3.46 in data set [3] (setting [11]), 3.5 in data set [3] (setting [12]) and 3.5 in [3] (setting [13]). The EC50 on KV7.2/3 channel [4] (setting [14]) is more than 10000 nM. In addition, the “KV7.2/3 channel opening activity (in words)” value on KV7.2/3 channel [4] is “inactive”.
As for `COc1cc(NCc2ccc(F)cc2)ccc1C(=O)NCc1ccc(F)cc1` [28b, N-(4-Fluorobenzyl)-4-[(4-fluorobenzyl)amino]-2-methoxybenzamide], the LD25 in the data set on TAMH cells [1] and with HEP-G2 cells [5] was more than 8 µM each time. The LD50 in the data set on TAMH cells [1] and with HEP-G2 cells [5] was more than 8 µM in each case. Further, the chromatographic logD in [3] (HPLC, Phenomenex Luna 5 μm Phenyl-Hexyl column, pH 7.4, HPLC, calibration C, read-out: logD7.4) was 4.28; in [3] (HPLC, Phenomenex Luna 5 μm Phenyl-Hexyl column, pH 7.4, HPLC, calibration D, read-out: logD7.4), 4.29; in data set [3] (setting [12]), 4.3; in data set [3] (setting [13]) it was 4.3. The same molecule returned an EC50 on KV7.2/3 channel [4] (setting [14]) of more than 10000 nM. Besides, the “KV7.2/3 channel opening activity (in words)” value on KV7.2/3 channel [4] was “inactive”.

What is called EC50 is the concentration that produces a half-maximal response. Broadly, the melting point is the temperature, or range, at which the solid turns liquid.
